According to publication PMC4079326 (Journal of Medicinal Chemistry, 2014):

What was measured:
AmpC = AmpC (Escherichia coli, UniProt P00811); type: biochemical
TEM-1 = TEM-1 (Escherichia coli, UniProt P62593); type: biochemical
TEM-30 R244S = TEM-30 R244S (Escherichia coli, UniProt P62593, R241S); type: biochemical; conditions: 4 vs 5 on TEM-30
CTX-M-9 [1] = target: T1, CTX-M-9 (Escherichia coli, UniProt Q9L5C8); type: biochemical; conditions: class A
[2] = data not shown
CTX-M-9 [3] = target: T1, CTX-M-9; conditions: read-out: affinity toward CTX-M-9 (Ki); cited from earlier work

CC(=O)/C=C/c1c(B(O)O)sc2ccccc12 [Compound 4]
times less active vs AmpC (AmpC): 8 times | times less active vs class A (TEM-1): 125 times | change of binding vs TEM-30 with respect to compound 5 (TEM-30 R244S): less than 1 fold

O=C(O)/C=C/c1c(B(O)O)sc2ccccc12 [Compound 5, 3-(2-carboxyvinyl)benzo(b)thiophene-2-boronic acid]
gain in affinity vs TEM-1 with respect to starting lead 1 (TEM-1; class A): 1250 fold | improvement of binding energy vs TEM-1 (TEM-1; moving from 1 to 5): 2.8 kcal/mol | gain in affinity vs CTX with respect to starting lead 1 (CTX-M-9 [1]): 1250 fold | stability in microbiology assay conditions over time [2]: unstable

O=C(Cc1cccs1)N[C@H](B(O)O)c1cccc(C(=O)O)c1 [SMS2, (1R)-1-(2-thienylacetylamino)-1-(3-carboxyphenyl)methylboronic acid]
Ki (CTX-M-9 [3]): 578 nM
